Assay results reported in a melting point compilation (Tetko et al.; mined from patent text by program, amines drawn as free bases though some values may be those of a salt).

Row | Structure (SMILES) | melting point [°C]
1 | CCN(CC)CCC(=O)NC1(c2ccccc2Cl)C(=O)N(S(=O)(=O)c2ccc3c(c2)CCN3C(=O)N(CC)CC)c2ccc(Cl)cc21 (stereo not drawn) | 130 to 133
2 | COC(=O)c1cnc(C(=O)O)cn1 | 183 to 185
3 | Clc1ccc(CCC(Cn2ccnc2)Sc2c(Cl)cc(Cl)cc2Cl)cc1 (stereo not drawn) | 132
4 | NC1CCCC(NC(=O)c2ccc(-c3[nH]nc4c3C(=O)c3c(NC(=O)NN5CCOCC5)cccc3-4)s2)C1 (stereo not drawn) | > 300
5 | C[Si](C)(C)CCCCCNC(=O)n1cc(F)c(=O)[nH]c1=O | 118 to 119
6 | COCCCCN1C(=O)N(c2ccc(C#N)c(C(F)(F)F)c2)C(=O)C1(C)C | 80 to 81
7 | COc1cc(Nc2c(C#N)cnc3cc(-c4ccc(N5CCOCC5)cc4)ccc23)c(Cl)cc1Cl | 162 to 164
8 | CCC(O)(CC)c1cccc(COc2ccc3c(-c4ccoc4)cc(C#N)cc3c2)n1 | 115 to 116
9 | O=c1[nH]c(NCCc2c[nH]cn2)nc2c1ncn2C1CC(O)C(CO)O1 (stereo not drawn) | 220 to 222
10 | COc1ccc(Cl)cc1S(=O)(=O)Nc1onc(C)c1Br | 180 to 184
11 | CC(C)CCS(=O)(=O)NC(=O)CCc1cc(C2CC2)nn1Cc1ccc(C(F)(F)F)cc1Cl | 160 to 162
12 | CC(C)c1cccc(C(C)C)c1NC(=O)N(Cc1ccc(O)cc1)CC1(c2cccc(N(C)C)c2)CCCCC1 | 166 to 168
13 | CN1C(=O)CC[C@]2(C)c3ccc(Sc4ccc5cc([N+](=O)[O-])ccc5n4)cc3CC[C@@H]12 | 195 to 196
14 | CN(O)C(=O)C=Cc1ccc(F)cc1 | 141 to 142
15 | Cn1nc(-c2cnc(N)nc2-c2ccc(Cl)c(Cl)c2)ccc1=O | 238
16 | Oc1cccnc1C=NNc1ccc(F)cc1 | 223 to 225
17 | CCc1cc(OC)c(S(C)(=O)=O)cc1C(=O)N=C(N)N | 192 to 195
18 | Clc1nc2cc(Cl)c(Cl)cc2[nH]1 | 212 to 214
19 | COc1cc(OC)nc(C(C)c2ccccc2NC(=O)OC(C)(C)C)n1 (stereo not drawn) | 119 to 121

Row | Structure (SMILES) | melting point [°C]
20 | CCCOc1ccc(S(=O)(=O)N2CCN(CC)CC2)cc1-c1nc2cc3ncn(Cc4cccc(F)c4)c3cc2c(=O)[nH]1 | 115 to 117
21 | ON=Cc1csc2ccccc12 | 87 to 89
22 | CCOC(=O)CN1C(=O)CSC1=NN=C(C)C | 60 to 62
23 | N#CC1=C(c2ccc(Cl)cc2)NC(C(F)(F)F)C1 (stereo not drawn) | 158 to 160
24 | COC(=O)c1cn2c3c(c(F)c(F)cc3c1=O)CC(C)N2C (stereo not drawn) | 184 to 185
25 | CC(=O)N1CCc2cc(CC(C)Br)ccc21 (stereo not drawn) | 124 to 126
26 | CCOC(=O)c1cnc2n(c1=O)C(C)CCC2=NN (stereo not drawn) | 199 to 200
27 | CCCc1c(OCCCS(=O)(=O)c2ccc(C(=O)CCC(=O)O)c(F)c2)ccc(C(C)=O)c1O | 116 to 118
28 | C=Cc1cc2c(cc1Cl)C=C(C(=O)O)C(C(F)(F)F)O2 (stereo not drawn) | > 200
29 | NS(=O)(=O)c1ccccc1CSC1=NCCS1 | 123 to 125
30 | O=C1CCCC1c1ccc(Cl)cc1 (stereo not drawn) | 154 to 155
31 | CC1CC2(C)C(CCC3C2CCC2(C)C(OCc4ccccc4)CCC32)CC1=O (stereo not drawn) | 116 to 120
32 | COc1cc2c(cc1Nc1ncc(Cl)c(Nc3ccccc3S(=O)(=O)N(C)C)n1)CCN(CCN1CCOCC1)C(=O)C2 | 75 to 91
33 | CCC1Nc2cc(F)ccc2-n2cccc21 (stereo not drawn) | 49 to 51
34 | Cc1nn2ccc3c(c2c1CO)CCO3 | 173 to 174
35 | Cc1cccc(Br)c1C=O | 48 to 49
36 | N#Cc1cc(F)c(-n2nc3ccc(Cl)cn3c2=O)cc1F | > 230
37 | O=C(N[C@H](Cc1ccc(C(F)(F)F)cc1)[C@@H](O)c1cccc(Oc2ccccc2)c1)c1ccc(F)c2ccccc12 (racemic) | 184 to 185
38 | Cc1c(F)c(=O)n(-c2cc(C(=O)OC(C)C)c(Cl)cc2F)c(=O)n1C | 112 to 115

Row | Structure (SMILES) | melting point [°C]
39 | Cc1ccccc1Oc1nc(Cl)cc(Cl)n1 | 78 to 79
40 | COc1nc2cc([N+](=O)[O-])c(C)c(C(=O)N3CCNCC3)c2nc1OC | 150 to 152
41 | Cn1c(C(F)(F)F)cc(=O)n(-c2cc(OCCC3OCCO3)c(Cl)cc2F)c1=O | 125 to 127
42 | CCCCOC(=O)c1cn2ccnc2s1 | 84 to 86
43 | Cc1nc2c3c(c(C(=O)N4CCC(O)C4)cc2n1C)CCC(c1ccccc1)O3 (stereo not drawn) | 322 to 324
44 | CCC1=Nc2c(C)nn(C)c2C2=NCC(C)N12 (stereo not drawn) | 105 to 107
45 | CC(C)c1nc(CN2C(=O)C3(COc4cc5c(cc43)OCO5)c3ccccc32)co1 (stereo not drawn) | 118 to 120
46 | C=CCOC(=O)c1c(Cl)c(OC)cc(O[Si](C)(C)C(C)(C)C(C)C)c1C=O | 97
47 | COc1cc(Br)cc([N+](=O)[O-])c1N | 137 to 138
48 | CC(=O)N(C)c1cccc(C(=O)C=CN(C)C)c1 | 146 to 148
49 | O=c1c(Cl)c(OCc2ccc(F)cc2F)ccn1Cc1cccc2c1CCNC2 | 180 to 184
50 | CN(C)CCN(CCN(C)C)c1cccc(-c2nc3cc(Cl)c(Cl)cc3[nH]2)c1 | 129 to 132
51 | CCN1c2ncc(CCc3cccc(N=[N+]=[N-])c3)cc2C(=O)N(C)c2ccc(Cl)nc21 | 104 to 105
52 | CC(C)(C)CC(C)(C)c1cc(CO)c(O)c(CO)c1 | 76 to 77
53 | COCOc1cc(OCOC)c2c(=S)cc(C)oc2c1 | 109 to 110
54 | CCOC(=O)C(CO)NC(=O)C(N)(CC(=O)O)NC(=O)C(C)C (stereo not drawn) | 175 to 178
55 | O=C1COc2cc3[nH]c(C(=O)N4CCC(Cc5ccc(F)cc5)CC4)cc3cc2N1 | 219 to 226
56 | CCCn1c(=O)c2c(nc(C=O)n2C)n(CCC)c1=O | 130

Now from value to molecule:

Row | melting point [°C] | Structure (SMILES)
57 | 85 to 95 | Cc1cc(OCCNC(=O)C2Cc3ccccc3N2S(=O)(=O)c2ccc(-c3ccccc3C(F)(F)F)cc2)ccc1CC(=O)O (stereo not drawn)
58 | 116 | COc1ccc(CC(=O)NCc2ccccc2-c2ccccc2C(=O)NCCc2cccnc2)cc1
59 | 123 to 125 | CS(=O)(=O)c1ccccc1-c1ccn[nH]c1=O
60 | 146 to 147 | CC(C)n1nc(-c2sc(C(=O)NC3CC3)nc2-c2cccc(F)c2)ccc1=O
61 | 218 to 220 | CC12CCC(C(=O)O)=CC1=CCC1C2CCC2(C)C(C(=O)CCc3ccccc3)CCC12 (stereo not drawn)
62 | 179 to 180 | Cc1ccc(S(=O)(=O)N(C)c2ccc(S(C)(=O)=O)cc2C#N)cc1
63 | 132 | c1ccc(C2CN=C3Sc4ccccc4N32)cc1 (stereo not drawn)
64 | 178 | Cc1c(C(=O)N[C@H](C(=O)O)c2ccc(OCc3ccccc3)cc2)oc2cc(-c3ccc(Cl)cc3)ccc12
65 | 219 to 221 | CCCn1nc2c(N)nc3ccccc3c2c1CCNC(=O)c1cccnc1
66 | 130 to 131 | Cc1cccc(CNC(=O)c2ccc3n2Cc2ccccc2N(C(=O)COc2ccc(Cl)cc2)C3)c1
67 | 175 to 176 | CS(=O)(=O)c1ccc(-c2cc(=O)n(CC3CCCCC3)nc2-c2ccc(F)cc2)cc1
68 | 106 to 107 | CCOC(=O)C=CC=Cc1ccc(F)c([N+](=O)[O-])c1
69 | 165 to 166 | CC1CC(=O)NN=C1c1ccc(NC(=O)OCc2cccc(Cl)c2)cc1 (stereo not drawn)
70 | 138 to 139 | CCc1ccc(NC(=O)NCC2(c3ccccc3)CCCCC2)cc1
71 | 203 to 204 | O=C(O)Cc1nn(-c2nc3c(Cc4ccc5scnc5c4)cccc3s2)c(=O)c2ccccc12
72 | 233 to 234 | O=C(NCc1ccccc1)c1cc([N+](=O)[O-])ccc1N[C@H]1CC[C@H](O)CC1
73 | 160 to 162 | O=C1c2ccc(O)cc2CCC1Cc1ccccc1 (stereo not drawn)
74 | 129 to 130 | CCNC(=O)Nc1ccc(CC(CO)NCC(O)COc2ccccc2)cc1 (stereo not drawn)
75 | 127 to 128 | CCOC(=O)Cc1nc(-c2ccc(Cl)cc2)oc1-c1ccsc1
76 | 250 to 252 | COc1ccc2c(c1)S(=O)(=O)c1ccccc1C(=S)N2
77 | 161 to 163 | CCC(=O)NCCc1c(-c2ccccc2)nn2ccc3occc3c12

Row | melting point [°C] | Structure (SMILES)
78 | 206 to 207 | CC(C)(C)c1cc(CCc2ccc(NC(=O)Nc3ccccc3)cc2)cc(C(C)(C)C)c1O
79 | 218 to 219 | Brc1ccc(-n2c(-c3ccccc3)ccc2-c2ccccc2)cc1
80 | 204 to 208 | Cc1cccc2c1ncn2Cc1oc2ccccc2c(=O)c1-c1ccccc1
81 | 115 to 117 | CC(=O)c1c(-c2ccc(OCCBr)c3ccccc23)oc2ccccc12
82 | 218 to 221 | COc1ccc(NC(=O)c2ccc(F)c(F)c2)cc1NCc1cccc(C(=O)O)c1
83 | 246 to 247 | CN(C(=O)c1ccccc1C(c1ccc(O)cc1)c1ccc(O)cc1)c1ccccc1
84 | 161 | CSc1ccc(C=CC(=O)c2ccc(Br)cc2)cc1
85 | 75 to 77 | CCOC(=O)CC(=O)c1ccc(-c2ccccc2)cc1
86 | 147 to 148 | CC(=O)NC(Cc1c[nH]c2ccccc12)C(=O)OC(c1ccccc1)c1ccccc1 (stereo not drawn)
87 | 212 to 215 | Cc1cccc(Cl)c1C(=O)N[C@@H](Cc1ccc(NC(=O)c2c(Cl)cccc2Cl)cc1)C(=O)O
88 | 237 | NS(=O)(=O)c1cccc(-c2cc(-c3nc(-c4ccc(C(F)(F)F)cc4)cc(C(F)(F)F)n3)ccn2)c1
89 | 178 to 180 | COC(=O)c1cccc(NC(=O)NS(=O)(=O)c2ccc(C)cc2)c1
90 | 270 to 272 | CCOC(=O)c1cn2c3c(c(-c4ccccc4)c(F)cc3c1=O)OCC2C (stereo not drawn)
91 | 156 to 158 | CC(C)(C)NC(=O)N1CCn2cc(-c3ccccc3)c(C(N)=O)c2C1
92 | 172 to 174 | CN1C(=O)CC[C@]2(C)c3ccc(Oc4ccc5ccccc5n4)cc3CC[C@@H]12
93 | 120 | CCCCN(CCCC)C(=O)On1c(-c2ccccc2)nc2c3ccc4ccccc4c3ccc21
94 | 117 to 118 | CCOC(=O)c1nc(-c2ccc(CN(C)C)cc2)[nH]c1-c1ccc(Cl)cc1
95 | 125 to 126 | COC=C(C(=O)OC)c1ccccc1O
96 | 185 | CC(CCn1c(=O)[nH]c2ccccc21)N1CCC(CC(=O)c2ccc(F)cc2)CC1 (stereo not drawn)
97 | 178 to 179 | COC(=O)Nn1c(N)c(C#N)c(C)c1-c1ccccc1
98 | 85 to 87 | CCN(CC)C(=O)c1cc(-c2ccccc2)ccc1OC
